Source: patent publication US12180473B2, “Chimeric RNA-driven genomic rearrangement in mammalian cells” (priority 2018, dated 2024)

Legend:
[1] = system: AZI1 RNA; details: LNCaP cells
[2] = system: TMPRSS2-ERG fusion
[3] = system: ERG mRNA; experiment: RT-PCR of endogenous ERG mRNA in LNCaP cells
[4] = system: TMPRSS2-ERG fusion; remark: listed apart in the source
Method: LNCaP cells were cultured in this special medium for 24 hrs prior to plasmid transfection.
Transfection was performed using Turbofect transfection reagent (Thermo Scientific, #R0531) according to manufacturer's protocol. Briefly, 1 μg of a particular plasmid was first diluted in 100 μl of the serum-free DMEM followed by immediate mixing by pipetting. 4 μl of the transfection reagent was then added to the diluted DNA followed by mixing and incubation for 20 min. The DNA/transfection reagent mixture was then added drop wise to a well containing LNCaP cells in 1 ml medium.
For treating cultured cells, concentrated DHT stock was diluted as 10× working solutions (for example, for 0.9 μM final concentration, 10× is prepared as 9.0 μM) with the appropriate complete culture medium and used immediately. […] Six hrs post transfection, 111 μl of fresh 10× DHT working solutions was added to each well of 12-wells plate containing 1 ml medium and transfected cells.
Briefly, cells were suspended in 200 μl of PBS buffer and were then lysed with 400 μl of lysis buffer. The sample was then passed through the filter assembly resulting in the binding of the nucleic acids to the filter. The filter containing nucleic acids was then incubated with DNase I dissolved in DNase incubation buffer to degrade genomic and plasmid DNAs. The column was then rinsed with wash buffer and total RNA then eluted in a new tube for further analysis.
After the addition of dNTPs, the mixture was denatured at 65° C. for 5 minutes. This was followed by the addition of a master-mix containing 1× superscript buffer, 10 mM DTT, 5 mM Magnesium chloride, RNaseOUT and Superscript III reverse transcriptase. Reactions were carried out at 50° C. for 50 minutes and then terminated by incubation at 85° C. for 5 minutes. cDNA was then treated with RNase-H for 20 minutes at 37° C. to degrade RNA in DNA/RNA hybrid. 1 μl of cDNA was used as template for each subsequent PCR reaction.
The Denaturation, Annealing and Extension steps were performed 32 cycles for induced fusion RNA and 27 cycles for input RNA.

[5] = system: TMPRSS2 mRNA; details: LNCaP cells

## C[C@]12CCC(=O)C[C@@H]1CC[C@@H]1[C@@H]2CC[C@]2(C)[C@@H](O)CC[C@@H]12 [DHT, 5α-Androstan-17β-ol-3-one]
[1]
  endogenous AZI1 RNA expression: upregulated
[2]
  TMPRSS2-ERG fusion transcript in PNT1A cells with DHT alone: no detectable fusion transcripts
[3]; presence or absence of DHT or antisense-5
  endogenous ERG mRNA (three-rounds of nested RT-PCR): not detected
[3]; wide range of DHT, presence or absence of antisense-5
  endogenous ERG mRNA (RT-PCR): not detected
[4]
  DHT concentration at which fusion induction is detectable: ~0.6 µM
  DHT concentration at which fusion induction reaches its maximum: 1.5 µM
[5]
  TMPRSS2 mRNA expression: upregulated
